Data as given in US20110209699A1, “COMBINATION OF DEHYDROEPIANDROSTERONE OR DEHYDROEPIANDROSTERONE-SULFATE WITH A LIPOXYGENASE INHIBITOR FOR TREATMENT OF ASTHMA OR CHRONIC OBSTRUCTIVE PULMONARY DISEASE” (priority 2003, published 2011).

What was measured:
[1] = test system: HT-29 SF cells; test: DHEA effect on cell growth (Coulter counter); details: 0, 12.5, 25, 50 or 200 μM; cell number at 0, 24, 48, 72 hours
Experimental: Cell cultures, HT-29 SF cells, which represent a subline of HY-29 cells (ATCC, Rockville, Md.) and are adapted for growth in completely defined serum-free PC-1 medium (Ventrex, Portland, Me.), were obtained. Stock cultures were maintained in this medium at 37° C. (in a humidified atmosphere containing 5% CO2).

[2] = test system: HT-29 SF cells; test: DHEA effect on cell cycle (flow cytometry); assay type: cell-based, human; details: 25, 50 or 200 μM; 24, 48, 72 hours; propidium iodide DNA content
[3] = test system: Intracellular adenosine; test: In vivo effect on adenosine levels in various rat tissues; set-up: species or system Fischer 344 rats; details: for Intracellular adenosine (nmols)/mg protein, Brain: rat brain, control 0.5 ± 0.04
Experimental: Folinic acid (50 mg/kg) was administered intraperitoneally once daily for fourteen days. […] Hearts were removed from animals and flash frozen in liquid nitrogen with 10 s of death. Liver and lungs were removed en bloc and flash frozen with 30 s of death. Brain tissue was subsequently dissected.

[4] = Solubility of DHEA-S as a function of NaCl concentration and temperature; assay type: physicochemical; details: for equilibrium constant Ksp=[DHEA-S-][Na+]: slope of solubility vs reciprocal sodium concentration
From the text: Inhalation of pure water can produce a cough stimulus. […] The temperature effect is weaker at high NaCl concentrations.

[5] = test system: HT-29 SF cells; test: Reversal of DHEA effect on cell cycle; assay type: cell-based, human; details: 25 μM DHEA
[6] = test system: HT-29 SF cells; test: Reversal of DHEA-mediated growth inhibition; assay type: cell-based, human; details: 25 μM DHEA, 48 hour treatment; MVA 2 μM, SQ 80 μM, CH 15 μg/ml, RN 30 μM each, DN 20 μM each
[7] = Short-term solution stability of nebulizer formulation; assay type: physicochemical; details: 10 mg/mL in 0.12% NaCl, clear glass vials
Experimental: Aliquots of this solution are filled into clear glass vials and stored at RT (24-26° C.) and at 40° C. The samples are checked daily for DHEA-S content, DHEA content, and appearance. For each time point, duplicate samples are withdrawn and diluted from each vial. […] The study is stopped on day three. […] The solution should easily be stable for the day of reconstitution in a clinical trial. The following section describes the aerosol properties of this formulation.

[8] = test system: rat peritoneal mast cells; test: Mast cell degranulation (histamine secretion) after compound 48/80; assay type: cell-based; details: at 0.1 uM; 0.1 μg/ml compound 48/80; 2 min at 37° C.
From the text: Leukotrienes are synthesized—though not exclusively by the mast cell (Gilchrist, M., McCauley, S. D., & Befus, A. D. (2004) Expression, localization, and regulation of NOS in human mast cell lines: effects on leukotriene production. Blood 104, 462-469). We determined whether DHEA-sulfate would reduce mast cell degranulation after stimulation with compound 48/80 in rat peritoneal mast cells. Mast cell degranulation was quantified by measurement of histamine, another substance contained within the secretory granules of mast cells. The release of histamine is believed to parallel the release of leukotrienes.
Freshly isolated rat peritoneal mast cells (2×10^5 cells) were pre-incubated for 5 min at 37° C. in a Balanced Salt Solution containing 150 mM NaCl (pH 7.4), 2.7 mM KCl, 0.9 mM CaCl2, 4 mM Na2HPO4, 2.7 mM KH2PO4, 1.75 mg/ml BSA and 0.1 μg/ml compound 48/80.
Following incubation, the mixture is cooled to 4° C. then centrifuged at 4500 rpm for 5 min. The supernatant is collected and mixed for 30 min at 4° C. with 5% TCA (trichloroacetic acid) to cause protein precipitation. […]
The amount of secreted histamine is quantified by measuring the fluorescence intensity at λex=360 nm and λem=450 nm using a spectrofluorimeter (GeminiXS, Molecular Devices). The results are expressed as a percent inhibition of control histamine secretion.

[9] = Physicochemical testing before and after micronization; details: for Particle size (D50%): laser diffraction; for Water (% w/w): Karl Fischer
Experimental: Surface area is determined using five point BET analyses are performed with nitrogen as the adsorbing gas (P/Po=0.05 to 0.30) using a Micromeritics TriStar surface area analyzer. Particle size distributions are measured by laser diffraction using a Micromeritics Saturn Digisizer where the particles are suspended in mineral oil with sodium dioctyl sodium sulfosuccinate as a dispersing agent. Drug substance water content is measured by Karl Fischer titration (Schott Titroline KF). Pure water is used as the standard and all relative standard deviations for triplicates are less than 1%. Powder is added directly to the titration media.

[10] = HPLC analysis of drug degradation during jet milling micronization; assay type: physicochemical; details: single and double pass jet-milled powder vs unmilled standard, HPLC peak area
Experimental: Approximately 1 g sample was passed through the jet mill, once, and approximately 2 g sample were passed through the jet mill twice. […] The resulting solution was sonicated for 3 minutes and appeared fully dispersed. The dispersed solutions were tested on a Malvern Mastersizer X with a small volume sampler (SVS) attachment. One sample of dispersed material was tested 5 times. The median particle size or D (v, 0.5) of unmilled material was 52.56 μm and the % RSD (relative standard deviation) was 7.61 for the 5 values. The D (v, 0.5) for a single pass through the jet mill was 3.90 μm and the % RSD was 1.27, and the D (v, 0.5) from a double pass through the jet mill 3.25 μm and the % RSD was 3.10.
Two vials (A; single-pass; 150 mg) and (B double-pass; 600 mg) of the micronized drug were available for determining drug degradation during jet milling micronization. […] The chromatographic peak area for the HPLC assay of the unmilled drug standard solution (10 mg/ml) gave a value of 23,427. […] The chromatographic peak areas for vials A and B were 11,979 and 11,677, respectively.

[11] = calculated for 20 mM Na+ (0.12% NaCl), Ksp 1316 mM^2, 15° C.

With `C[C@]12CC[C@H](O)CC1=CC[C@@H]1[C@@H]2CC[C@]2(C)C(=O)CC[C@@H]12` [DHEA, 3β-hydroxyandrost-5-en-17-one] the inhibition of growth [1] was “time- and dose-dependent inhibition of growth”, the “effect on cell cycle distribution” value [2] was “G1 block in HT-29 SF cells in a time- and dose-dependent manner” and the “Intracellular adenosine (nmols)/mg protein, Heart” value (“Intracellular adenosine … Heart” for short) ([3]; rat, in vivo) was 6.7 ± 0.5. The solubility in water ([4]; water) was “insoluble”.
In the case of `C[C@@](O)(CCO)CC(=O)O` [MVA, mevalonic acid], the “prevention of DHEA-induced S phase depletion by medium supplement” value (“prevention” below) ([5]; 48 hours) is reported as “partially prevented this effect”, the “prevention” value ([5]; 72 hours) is reported as “not after 72 hours” and the “reversal of DHEA-induced growth inhibition by medium supplement” value [6] is reported as “partially overcome”.
For `Nc1nc(=O)c2c([nH]1)NCC(CNc1ccc(C(=O)N[C@@H](CCC(=O)O)C(=O)O)cc1)N2C=O` (mixture of isomers) [Folinic Acid], the “Intracellular adenosine (nmols)/mg protein, Brain” value ([3]; once daily 14 days, DHEA 300 mg/kg or methyltestosterone 40 mg/kg by gavage, folinic acid 50 mg/kg i.p., alone or combined, mean ± SEM) was 0.72 ± 0.09 nmols/mg protein, the “Intracellular adenosine … Heart” value ([3]; rat heart, once daily 14 days, DHEA 300 mg/kg or methyltestosterone 40 mg/kg by gavage, folinic acid 50 mg/kg i.p., alone or combined, mean ± SEM, control 10.6 ± 0.6) was 12.4 ± 2.1 nmols/mg protein and the “Intracellular adenosine (nmols)/mg protein, Liver” value (“Intracellular adenosine … Liver” below) ([3]; rat liver, once daily 14 days, DHEA 300 mg/kg or methyltestosterone 40 mg/kg by gavage, folinic acid 50 mg/kg i.p., alone or combined, mean ± SEM, control 14.5 ± 1.0) was 16.4 ± 2.4 nmols/mg protein. For the same compound, the “adenosine levels when administered alone” value ([3]; rat, in vivo) was “increase in adenosine levels for all organs studied” and the “effect of coadministration on steroid-mediated adenosine depletion” value ([3]; rats, folinic acid 50 mg/kg i.p. with DHEA or methyltestosterone, 14 days) was “completely abrogated steroid-mediated adenosine depletion”.
With `C[C@]12CCC(=O)C=C1CC[C@@H]1[C@@H]2CC[C@@]2(C)[C@H]1CC[C@]2(C)O` [Methyltestosterone] the “Intracellular adenosine (nmols)/mg protein, Brain” value ([3]; methyltestosterone 120 mg/kg, alone or + folinic acid 50 mg/kg, mean ± SEM) was 0.32 ± 0.03 nmols/mg protein, the “Intracellular adenosine … Heart” value ([3]; rat heart, methyltestosterone 120 mg/kg, alone or + folinic acid 50 mg/kg, mean ± SEM, control 10.6 ± 0.6) was 6.0 ± 0.4 nmols/mg protein and the “Intracellular adenosine … Liver” value ([3]; rat liver, methyltestosterone 120 mg/kg, mean ± SEM, control 14.5 ± 1.0) was 5.1 ± 0.5 nmols/mg protein. The “Intracellular adenosine … Liver” value ([3]; rat, in vivo) was 16.5 ± 0.9 nmols/mg protein.
With `CC(C)CCC[C@@H](C)[C@H]1CC[C@H]2[C@@H]3CC=C4C[C@@H](O)CC[C@]4(C)[C@H]3CC[C@]12C` [CH, cholesterol] the “prevention” value ([5]; 48 hours) was “very little effect”, the “prevention” value ([5]; 72 hours) was “no effect” and the “reversal of DHEA-induced growth inhibition by medium supplement” value [6] was “no such effect”.
With `C[C@]12CC[C@H](OS(=O)(=O)[O-])CC1=CC[C@@H]1[C@@H]2CC[C@]2(C)C(=O)CC[C@@H]12.[Na+]` [DHEA-S, sodium dehydroepiandrostenone sulfate] the “solution appearance on storage” value ([7]; 40° C.) was “became cloudy after two days of storage”, the “solution appearance on storage” value ([7]; RT (24-26° C.)) was “slight precipitate is observed on the third day” and the “maximal effect, percent inhibition of control histamine secretion” value [8] was 69.9%. For the same compound, the “equilibrium constant Ksp=[DHEA-S-][Na+]” value ([4]; RT (24-25° C.)) was 2236 mM^2, the “estimated DHEA-S solution concentration” value [4, 11] was 10.7 mg/mL and the “estimated DHEA-S- solution concentration” value [4, 11] was 27.5 mM. The “equilibrium constant Ksp=[DHEA-S-][Na+]” value ([4]; refrigerated (7-8° C.)) was 665 mM^2.
For `CC12CCC3C(CC=C4CC(OS(=O)(=O)[O-])CCC43C)C1CCC2=O.[Na+]` (stereo not drawn) [DHEA-S dihydrate], the “Particle size (D50%)” value ([9]; Bulk, before micronization) was 31 microns, the “Water (% w/w)” value ([9]; Bulk) was 8.5 % w/w and the “Particle size (D50%)” value ([9]; Micronized (jet mill)) was 3.7 microns. The “Water (% w/w)” value ([9]; Micronized) was 8.4 % w/w and the “Surface area (m^2/g)” value ([9]; Micronized, five point BET) was 4.9 m^2/g.
For `C[C@]12CC[C@H](OS(=O)(=O)[O-])CC1=CC[C@@H]1[C@@H]2CC[C@]2(C)C(=O)CC[C@@H]12.[Na+]` [Anhydrous DHEA-S], the “drug degradation during jet milling micronization” value [10] was “no detectable degradation”.
For `CC(C)=CCC/C(C)=C/CC/C(C)=C/CC/C=C(\C)CC/C=C(\C)CCC=C(C)C` [SQ, squalene], the “reversal of DHEA-induced growth inhibition by medium supplement” value [6] was “no such effect”.
